Tests used:
[1] = test system: original-SARS2 (P2VeroE6 virus, SARS-CoV-2_DK-AHH1); assay: microbe, parasite or virus in culture; format: cell-based
Huh7.5 cells = format: cell-based, human; conditions: higher concentrations marked # in Fig. 4A

Structure (SMILES): CCC(CC)COC(=O)[C@H](C)N[P@](=O)(OC[C@H]1O[C@@](C#N)(c2ccc3c(N)ncnn23)[C@H](O)[C@@H]1O)Oc1ccccc1 [Remdesivir]
- fold-higher activity in Huh7.5 cells than in Vero E6 cells [1]: ~50 fold
- EC50 ([1]; Severe acute respiratory syndrome coronavirus 2, Huh7.5): 30 nM

Structure (SMILES): COc1c(NC(=O)C(=O)c2ccc(OCCN3CCOCC3)c3ccccc23)cc(C(C)(C)C)cc1NS(C)(=O)=O [ITX5061]
- cytotoxicity (Huh7.5 cells): cytotoxic

From publication PMC8406809 (Antimicrobial Agents and Chemotherapy, 2021)
